These results are taken from US10562891B2, “Quinazolinones as PARP14 inhibitors” (Ribon Therapeutics Inc., priority 2017, dated 2020).

Where a name gives a salt, the structure may show the parent alone. Some results are limits rather than exact numbers.

The assay deals with catalytic domain of human PARP14 (Homo sapiens (Human), UniProt Q460N5). The assay is described as follows: Enzymatic assay for inhibition of PARP14 (DELFIA, auto-modification with biotin-NAD). The assay is classed as biochemical. To be noted: auto-modification of PARP14 by biotin-NAD, 50 nM PARP14, 3 μM biotin-NAD. The method in brief: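 DELFIA auto-modification read-out: europium-streptavidin bound to biotin-NAD incorporated onto nickel-captured His-TEV PARP14 catalytic domain. Compound preincubated 30 min, then 50 nM enzyme with 3 μM biotin-NAD reacted 3 h, all at 25 °C, pH 8, then NAD quench. Percent inhibition normalized to rucaparib/DMSO wells, fitted (4- or 3-parameter) for IC50.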
Chain of catalytic domain of human PARP14 (Q460N5 1611-1801): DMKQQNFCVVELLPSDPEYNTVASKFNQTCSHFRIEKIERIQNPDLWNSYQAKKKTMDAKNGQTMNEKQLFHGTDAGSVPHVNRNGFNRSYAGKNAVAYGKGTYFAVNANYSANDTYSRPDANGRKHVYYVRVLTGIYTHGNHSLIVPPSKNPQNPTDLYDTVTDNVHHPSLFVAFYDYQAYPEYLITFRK
`CC(=O)N[C@H]1CC[C@@H](SCc2nc3cc(OCC4CC4)cc(F)c3c(=O)[nH]2)CC1` [Example 329, N-((cis)-4-(((7-(Cyclopropylmethoxy)-5-fluoro-4-oxo-3,4-dihydroquinazolin-2-yl)methyl)thio)cyclohexyl)acetamide] returned an IC50 of under 1000 nM. In the case of `Cc1cccc2c(=O)[nH]c(CSC3CCC(CN)CC3)nc12` (centres unmarked) [Example 64, 2-(((4-(Aminomethyl)cyclohexyl)thio)methyl)-8-methylquinazolin-4(3H)-one Trifluoroacetate] it was under 1000 nM; in that of `CC(=O)NC[C@H]1CC[C@H](SCc2nc3c(C)cccc3c(=O)[nH]2)CC1` [Example 178, N-(((trans)-4-(((8-methyl-4-oxo-3,4-dihydroquinazolin-2-yl)methyl)thio)cyclohexyl)methyl)acetamide], 1000 to 10000 nM. The same measure for `O=c1[nH]c(CS[C@H]2CCNC[C@@H]2C(F)(F)F)nc2cc(NC3CCCC3)cc(F)c12` (relative stereo) [Example 222, 7-(Cyclopentylamino)-5-fluoro-2-(((trans-3-(trifluoromethyl)piperidin-4-yl)thio)methyl)quinazolin-4(3H)-one Hydrochloride]: under 1000 nM; for `O=c1[nH]c(CSC2CCOCC2)nc2cc(OCc3ccccc3)ccc12` [Example 96, 7-(Benzyloxy)-2-(((tetrahydro-2H-pyran-4-yl)thio)methyl)quinazolin-4(3H)-one]: 1000 to 10000 nM. In the case of `O=c1[nH]c(CSC2CCN(CC(F)(F)F)CC2)nc2cc(NC3CCCC3)ccc12` [Example 254, 7-(Cyclopentylamino)-2-(((1-(2,2,2-trifluoroethyl)piperidin-4-yl)thio)methyl)quinazolin-4(3H)-one] it was under 1000 nM; in that of `Cc1cccc2c(=O)[nH]c(CSC3CCN(Cc4cncn4Cc4ccccc4)CC3)nc12` [Example 153, 2-(((1-((1-Benzyl-1H-imidazol-5-yl)methyl)piperidin-4-yl)thio)methyl)-8-methylquinazolin-4(3H)-one trifluoroacetate], under 1000 nM; in that of `Cn1ccnc1Nc1ccc2c(=O)[nH]c(CSC3CCOCC3)nc2c1` [Example 88, 7-((1-Methyl-1H-imidazol-2-yl)amino)-2-(((tetrahydro-2H-pyran-4-yl)thio)methyl)quinazolin-4(3H)-one], over 10000 nM. `CN1CCC(COc2cc(F)c3c(=O)[nH]c(CSC4CCOCC4)nc3c2)CC1` [Example 415] showed an IC50 of under 1000 nM. The same measure for `O=c1[nH]c(CSC2CCOCC2)nc2cc(OC3CCCC3)ccc12` [Example 197, 7-(cyclopentyloxy)-2-(((tetrahydro-2H-pyran-4-yl)thio)methyl)quinazolin-4(3H)-one]: under 1000 nM. Molecule `O=c1[nH]c(CS[C@H]2CC[C@H](O)CC2)nc2cc(Nc3cccnc3)ccc12` [Example 101, 2-(((trans-4-Hydroxycyclohexyl)thio)methyl)-7-(pyridin-3-ylamino)quinazolin-4(3H)-one] showed an IC50 of under 1000 nM.

In the case of `CC(=O)N1CCC(Nc2ccc3c(=O)[nH]c(CSC4CCOCC4)nc3c2)CC1` [Example 131, 7-((1-Acetylpiperidin-4-yl)amino)-2-(((tetrahydro-2H-pyran-4-yl)thio)methyl) quinazolin-4(3H)-one], the IC50 fell in the range of 1000 to 10000 nM. In the case of `Cc1cccc2c(=O)[nH]c(CSC3CCN(Cc4nccn4C)CC3)nc12` [Example 138, 8-Methyl-2-(((1-((1-methyl-1H-imidazol-2-yl)methyl)piperidin-4-yl)thio)methyl)quinazolin-4(3H)-one bistrifluoroacetate] it was under 1000 nM. The molecule `O=C(Nc1ccc2c(=O)[nH]c(CSC3CCOCC3)nc2c1)c1ccccc1` [Example 76, N-(4-Oxo-2-(((tetrahydro-2H-pyran-4-yl)thio)methyl)-3,4-dihydroquinazolin-7-yl)benzamide] came in with an IC50 of 1000 to 10000 nM. Turning to `O=c1[nH]c(CSC2CCOCC2)nc2cc(OCC3CCCN(CC(F)F)C3)cc(F)c12` (centres unmarked) [Example 312, 7-((1-(2,2-Difluoroethyl)piperidin-3-yl)methoxy)-5-fluoro-2-(((tetrahydro-2H-pyran-4-yl)thio)methyl)quinazolin-4(3H)-one], the IC50 is under 1000 nM. Molecule `CC(=O)Nc1ccc2c(=O)[nH]c(CSC3CCOCC3)nc2c1` [Example 75, N-(4-Oxo-2-(((tetrahydro-2H-pyran-4-yl)thio)methyl)-3,4-dihydroquinazolin-7-yl)acetamide] came in with a concentration for half-maximal inhibition (IC50) of over 10000 nM. The same measure for `O=c1[nH]c(CSC2CCOCC2)nc2cnccc12` [Example 37, 2-(((Tetrahydro-2H-pyran-4-yl)thio)methyl)pyrido[3,4-d]pyrimidin-4(3H)-one]: over 10000 nM; for `Nc1ccc2c(=O)[nH]c(CSC3CCOCC3)nc2c1` [Example 74, 7-Amino-2-(((tetrahydro-2H-pyran-4-yl)thio)methyl)quinazolin-4(3H)-one]: over 10000 nM.

In the case of `CN1CCOC(COc2cc(F)c3c(=O)[nH]c(CSC4CCOCC4)nc3c2)C1` (centres unmarked) [Example 414], the IC50 is under 1000 nM. For `Cc1cccc2c(=O)[nH]c(CSC3CCNCC3)nc12` [Example 13, 8-Methyl-2-((piperidin-4-ylthio)methyl)quinazolin-4(3H)-one Trifluoroacetate], the concentration for half-maximal inhibition (IC50) is under 1000 nM.

`CS(=O)(=O)N1CC(Nc2ccc3c(=O)[nH]c(CSC4CCOCC4)nc3c2)C1` [Example 195, 7-((1-(methylsulfonyl)azetidin-3-yl)amino)-2-(((tetrahydro-2H-pyran-4-yl)thio)methyl)quinazolin-4(3H)-one] displayed an IC50 of under 1000 nM. Molecule `O=c1[nH]c(CS[C@@H]2CCNC[C@H]2F)nc2cc(NC3CCCC3)cc(F)c12` [Example 211b, 7-(Cyclopentylamino)-5-fluoro-2-((((3R,4R)-3-fluoropiperidin-4-yl)thio)methyl)quinazolin-4(3H)-one] registered an IC50 of under 1000 nM. In the case of `O=c1[nH]c(CSC2CCOCC2)nc2cc(NC3CC3)ccc12` [Example 124, 7-(Cyclopropylamino)-2-(((tetrahydro-2H-pyran-4-yl)thio)methyl)quinazolin-4(3H)-one] it was under 1000 nM; in that of `Cc1cccc2c(=O)[nH]c(CS[C@H]3CCC[C@H](N)CC3)nc12` (relative stereo) [Example 54, 2-(((trans-4-Aminocycloheptyl)thio)methyl)-8-methylquinazolin-4(3H)-one Trifluoroacetate], 1000 to 10000 nM; in that of `O=c1[nH]c(CSC2CCNCC2)nc2cc(NCC3CC3)cc(F)c12` [Example 265, 7-((Cyclopropylmethyl)amino)-5-fluoro-2-((piperidin-4-ylthio)methyl)quinazolin-4(3H)-one], under 1000 nM. The molecule `CN1CC[C@H](SCc2nc3cc(NC4CCCC4)cc(F)c3c(=O)[nH]2)[C@@H](F)C1` (relative stereo) [Example 412] came in with a 50% inhibitory concentration (IC50) of under 1000 nM. Consider `Cc1cccc2c(=O)[nH]c(CS[C@H]3CC[C@@H](CN(C)C)CC3)nc12` [Example 68, 2-(((cis-4-((Dimethylamino)methyl)cyclohexyl)thio)methyl)-8-methyl quinazolin-4(3H)-one Trifluoroacetate], for which the IC50 is 1000 to 10000 nM.

For the molecule `O=c1[nH]c(CSC2CCOCC2)nc2cc(OCC3CCNCC3)cc(F)c12` [Example 399], the IC50 is under 1000 nM.

Turning to `Cc1cccc2c(=O)[nH]c(CSC3CNC3)nc12` [Example 25, 2-((Azetidin-3-ylthio)methyl)-8-methylquinazolin-4(3H)-one Trifluoroacetate], the IC50 is over 10000 nM.
